Laboratory results published in patent US6765096B1, “Tricyclic compound having acyloxymethoxycarbonyl side chain” (Shionogi & Co., Ltd., priority 1999, dated 2004).

Legend:
[1] = Oral absorption test, fasting rat (Test Examples 2 and 3); type: in vivo, Jcl:SD male rat; settings: rat 18 hours fasting
Method: Test Example 2 Oral Absorption Test
(§1) The present compound (I-1) was ground with an agate mortar, which was prepared into an aqueous suspension having the concentration of 10 mg/mL using a 0.5% aqueous methylcellulose solution as a vehicle. Each compound was orally administered to a Jcl:SD male rat (10 weeks old, 18 hours fasting) as a parent compound at a rate of 20 mg/kg. 0.5, 1, 2, 4, 6, 8 and 24 hours after administration, 0.3 mL of blood was taken from a cannula inserted in rat jugular in advance. The blood was centrifuged to obtain a plasma. 0.5 mL of a mixed solution of methanol and acetonitrile (1/1 (w/w)) was added to 0.1 mL of the plasma, proteins were removed therefrom, followed by centrifugation. The supernatant was used as a HPLC sample.
The oral absorbabilities of the present compound (I-163) and its parent compound (II-4) were measured as in Test Example 2.

[2] = tested on: anti-ovalbumin (OVA) IgE antibody production; assay: IgE antibody production inhibiting effects against anti-ovalbumin (OVA); anti-OVA IgE antibody titer (PCA titer); type: in vivo, BALB/c mice; settings: consecutive 10 days, OVA-immunized BALB/c mouse, Log2 of maximum serum dilution giving PCA positive reaction in Wistar rat
Method: Test Example 1 IgE Antibody Production Inhibiting Effects Against Anti-ovalbumin (OVA)
BALB/c mice (female, 8-10 weeks old) and Wistar rats (female, 8-10 weeks old) purchased from Japan SLC (Shizuoka) were used.
2) Method of Immunization
0.2 mL of a solution obtained by suspending 2 μg of ovalbumin (OVA) and 2 mg of aluminium hydroxide gel in a physiological saline was injected in a BALB/c mouse intraperitoneally to immunize it. After ten days, blood was taken from the heart, serum was separated, and stored at −40° C. until the IgE antibody titer was measured.
[…] Administration was carried out for consecutive 10 days from an immunization day to the day before a blood collection day.
4) Measurement of Anti-OVA IgE Antibody Titer (PCA Titer)
The resulting mouse serum was prepared into a 2-fold dilution series using a physiological saline, each 50 μl of which was injected to a pre-haircut Wistar rat intracutaneously at a back. After 24 hours, 0.5 mL of a physiological saline containing 1 mg of OVA and 5 mg of Evans Blue pigment was injected intravenously to induce passive cutaneous anaphylaxis reaction (PCA). After 30 minutes, a maximum dilution rate of the serum showing PCA positive reaction of a pigment spot having a diameter of 5 mm or more was determined, and Log2 of its dilution rate was adopted as a PCA titer. For example, when a serum becomes PCA reaction positive until 2^7-fold dilution, an anti-OVA IgE antibody titer of the mouse is 7.

[3] = Oral absorption test, non-fasting rat (Test Example 4); type: in vivo
Method: as §1
Test Example 4 Oral Absorption Test
The oral absorbabilities of the present compound (I-16) and its parent compound (II-1) were measured as in Test Example 2 using a non-fasting rat.

[4] = oral administration, only parent compound (II-1) observed
[5] = plasma concentration of parent compound after oral administration, 20 mg/kg as parent compound
[6] = plasma concentration of parent compound (II-1) after oral administration

What does the source list for `CC(C)=CCOc1ccc(-c2cc(C)c(-c3ccc(N(CC=C(C)C)C(=O)OCOC(=O)CCC(N)=O)cc3F)cc2C)cn1` [Compound I-1]?
administered prodrug itself in the circulating plasma [1, 4]: not detected; AUC [1, 5]: 32030 ng·h/mL; Cmax [1, 5]: 2500 ng/mL; anti-OVA IgE antibody titer (PCA titer) ([2]; 3 mg/Kg orally): 7.0; anti-OVA IgE antibody titer (PCA titer) ([2]; 10 mg/Kg orally): 0.8

Which “anti-OVA IgE antibody titer (PCA titer)” value ([2]; 10 mg/Kg orally) does the source give for `CC(=O)NC(CCC(=O)OCOC(=O)N(CC=C(C)C)c1ccc(-c2cc(C)c(-c3ccc(OCC=C(C)C)nc3)cc2C)c(F)c1)C(N)=O` (stereo not drawn) [Compound I-6, 4-acetylamino-4-carbamoyl-butyric acid [{2-fluoro-2′,5′-dimethyl-4′-[6-(3-methyl-but-2-enyloxy)-pyridin-3-yl]-biphenyl-4-yl}-(3-methyl-but-2-enyl)-carbamoyloxy]-methyl ester] here?
The value was 1.8.

For `CC(=O)NC(CC(N)=O)C(=O)OCOC(=O)N(CC=C(C)C)c1ccc(-c2cc(C)c(-c3ccc(OCC=C(C)C)nc3)cc2C)c(F)c1` (stereo not drawn) [Compound I-13, 2-acetylamino-succinamic acid [{2-fluoro-2′,5′-dimethyl-4′-[6-(3-methyl-but-2-enyloxy)-pyridin-3-yl]-biphenyl-4-yl}-((E)-3-methyl-but-2-enyl)-carbamoyloxy]-methylester], which “anti-OVA IgE antibody titer (PCA titer)” value ([2]; 10 mg/Kg orally) is on record?
Its value is under 0.

Which “anti-OVA IgE antibody titer (PCA titer)” value ([2]; 10 mg/Kg orally) does the source give for `CC(=O)NC(CCC(N)=O)C(=O)OCOC(=O)N(CC=C(C)C)c1ccc(-c2cc(C)c(-c3ccc(OCC=C(C)C)nc3)cc2C)c(F)c1` (stereo not drawn) [Compound I-15, 2-acetylamino-4-carbamoyl-butyric acid [{2-fluoro-2′,5′-dimethyl-4′-[6-(3-methyl-but-2-enyloxy)-pyridin-3-yl]-biphenyl-4-yl}-((E)-3-methyl-but-2-enyl)-carbamoyloxy]-methyl ester] here?
The value was 0.

Which results are given for `CC(=O)NCC(=O)NCC(=O)OCOC(=O)N(CC=C(C)C)c1ccc(-c2cc(C)c(-c3ccc(OCC=C(C)C)nc3)cc2C)c(F)c1` [Compound I-16, (2-acetylamino-ethanoylamino)-acetic acid [{2-fluoro-2′,5′-dimethyl-4′-[6-(3-methyl-but-2-enyloxy)-pyridin-3-yl]-biphenyl-4yl]}-((E)-3-methyl-but-2-enyl)-carbamoyloxy]-methyl ester]?
administered prodrug itself in the circulating plasma [3, 4]: not detected; AUC [3, 6]: 165520 ng·h/mL; Cmax [3, 6]: 16020 ng/mL; anti-OVA IgE antibody titer (PCA titer) ([2]; 10 mg/Kg orally): <0
